# The kinase profiling compilation of Christmann-Franck et al. (2016)
# Experiments:
# Test in all cases: KINOMEscan competition binding
# Conditions in all cases: compound 10.0 µM
# ACVR1 (human) = ACVR1 (human) (UniProt Q04771)
# ADCK3 (human) = ADCK3 (human) (UniProt Q8NI60)
# AKT2 (human) = AKT2 (human) (UniProt P31751)
# CAMK1G (human) = CAMK1G (human) (UniProt Q96NX5)
# CAMK2B (human) = CAMK2B (human) (UniProt Q13554)
# CDK11B (human) = CDK11B (human) (UniProt P21127)
# CDK17 (human) = CDK17 (human) (UniProt Q00537)
# CDK4 CCND3 (human) = CDK4 CCND3 (human) (UniProt P11802+P30281)
# CDK5 (human) = CDK5 (human) (UniProt Q00535)
# Sequence of CDK5 (human) (Q00535 whole entry, looked up): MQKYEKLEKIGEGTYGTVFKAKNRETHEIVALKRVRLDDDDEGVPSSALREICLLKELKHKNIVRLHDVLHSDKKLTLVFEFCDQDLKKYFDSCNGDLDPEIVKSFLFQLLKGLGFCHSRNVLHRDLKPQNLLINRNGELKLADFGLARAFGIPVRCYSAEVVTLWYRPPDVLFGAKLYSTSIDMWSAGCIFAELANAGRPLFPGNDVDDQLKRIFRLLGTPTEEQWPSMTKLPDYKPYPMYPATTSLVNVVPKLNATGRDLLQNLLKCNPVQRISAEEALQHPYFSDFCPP
# CHEK1 (human) = CHEK1 (human) (UniProt O14757)
# Sequence of CHEK1 (human) (O14757 whole entry, looked up): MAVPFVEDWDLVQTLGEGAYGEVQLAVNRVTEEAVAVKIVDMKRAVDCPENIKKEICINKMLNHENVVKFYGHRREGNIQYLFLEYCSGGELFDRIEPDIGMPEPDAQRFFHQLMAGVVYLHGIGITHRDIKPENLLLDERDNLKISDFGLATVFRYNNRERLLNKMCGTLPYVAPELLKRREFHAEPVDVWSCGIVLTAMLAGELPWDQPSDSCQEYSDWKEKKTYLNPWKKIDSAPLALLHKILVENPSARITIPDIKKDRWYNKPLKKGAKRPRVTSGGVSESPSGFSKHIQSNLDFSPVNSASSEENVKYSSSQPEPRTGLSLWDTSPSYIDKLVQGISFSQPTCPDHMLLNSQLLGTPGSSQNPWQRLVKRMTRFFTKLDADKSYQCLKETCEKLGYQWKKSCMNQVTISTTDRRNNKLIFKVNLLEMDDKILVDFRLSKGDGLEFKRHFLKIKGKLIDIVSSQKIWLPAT
# [1] = test system: EGFR (human), P00533 [A750P; 747-749 del]
# EIF2AK1 (human) = EIF2AK1 (human) (UniProt Q9BQI3)
# Sequence of EIF2AK1 (human) (Q9BQI3 whole entry, looked up): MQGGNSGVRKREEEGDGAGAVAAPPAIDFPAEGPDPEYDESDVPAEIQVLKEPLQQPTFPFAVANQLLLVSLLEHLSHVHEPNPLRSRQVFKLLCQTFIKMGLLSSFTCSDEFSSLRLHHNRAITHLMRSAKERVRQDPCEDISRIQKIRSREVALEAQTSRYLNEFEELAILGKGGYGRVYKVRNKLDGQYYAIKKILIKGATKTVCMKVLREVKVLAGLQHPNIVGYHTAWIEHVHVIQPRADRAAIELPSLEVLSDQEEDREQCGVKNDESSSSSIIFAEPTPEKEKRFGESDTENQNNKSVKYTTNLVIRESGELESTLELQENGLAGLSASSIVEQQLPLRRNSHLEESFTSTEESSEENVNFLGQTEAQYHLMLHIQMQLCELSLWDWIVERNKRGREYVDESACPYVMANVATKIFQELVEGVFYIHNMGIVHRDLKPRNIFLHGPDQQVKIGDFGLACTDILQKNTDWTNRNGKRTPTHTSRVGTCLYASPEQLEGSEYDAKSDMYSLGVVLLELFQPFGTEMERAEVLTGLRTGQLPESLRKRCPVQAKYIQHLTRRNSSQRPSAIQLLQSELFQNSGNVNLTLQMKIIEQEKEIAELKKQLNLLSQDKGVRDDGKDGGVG
# EPHB2 (human) = EPHB2 (human) (UniProt P29323)
# FLT4 (human) = FLT4 (human) (UniProt P35916)
# Sequence of FLT4 (human) (P35916 whole entry, looked up): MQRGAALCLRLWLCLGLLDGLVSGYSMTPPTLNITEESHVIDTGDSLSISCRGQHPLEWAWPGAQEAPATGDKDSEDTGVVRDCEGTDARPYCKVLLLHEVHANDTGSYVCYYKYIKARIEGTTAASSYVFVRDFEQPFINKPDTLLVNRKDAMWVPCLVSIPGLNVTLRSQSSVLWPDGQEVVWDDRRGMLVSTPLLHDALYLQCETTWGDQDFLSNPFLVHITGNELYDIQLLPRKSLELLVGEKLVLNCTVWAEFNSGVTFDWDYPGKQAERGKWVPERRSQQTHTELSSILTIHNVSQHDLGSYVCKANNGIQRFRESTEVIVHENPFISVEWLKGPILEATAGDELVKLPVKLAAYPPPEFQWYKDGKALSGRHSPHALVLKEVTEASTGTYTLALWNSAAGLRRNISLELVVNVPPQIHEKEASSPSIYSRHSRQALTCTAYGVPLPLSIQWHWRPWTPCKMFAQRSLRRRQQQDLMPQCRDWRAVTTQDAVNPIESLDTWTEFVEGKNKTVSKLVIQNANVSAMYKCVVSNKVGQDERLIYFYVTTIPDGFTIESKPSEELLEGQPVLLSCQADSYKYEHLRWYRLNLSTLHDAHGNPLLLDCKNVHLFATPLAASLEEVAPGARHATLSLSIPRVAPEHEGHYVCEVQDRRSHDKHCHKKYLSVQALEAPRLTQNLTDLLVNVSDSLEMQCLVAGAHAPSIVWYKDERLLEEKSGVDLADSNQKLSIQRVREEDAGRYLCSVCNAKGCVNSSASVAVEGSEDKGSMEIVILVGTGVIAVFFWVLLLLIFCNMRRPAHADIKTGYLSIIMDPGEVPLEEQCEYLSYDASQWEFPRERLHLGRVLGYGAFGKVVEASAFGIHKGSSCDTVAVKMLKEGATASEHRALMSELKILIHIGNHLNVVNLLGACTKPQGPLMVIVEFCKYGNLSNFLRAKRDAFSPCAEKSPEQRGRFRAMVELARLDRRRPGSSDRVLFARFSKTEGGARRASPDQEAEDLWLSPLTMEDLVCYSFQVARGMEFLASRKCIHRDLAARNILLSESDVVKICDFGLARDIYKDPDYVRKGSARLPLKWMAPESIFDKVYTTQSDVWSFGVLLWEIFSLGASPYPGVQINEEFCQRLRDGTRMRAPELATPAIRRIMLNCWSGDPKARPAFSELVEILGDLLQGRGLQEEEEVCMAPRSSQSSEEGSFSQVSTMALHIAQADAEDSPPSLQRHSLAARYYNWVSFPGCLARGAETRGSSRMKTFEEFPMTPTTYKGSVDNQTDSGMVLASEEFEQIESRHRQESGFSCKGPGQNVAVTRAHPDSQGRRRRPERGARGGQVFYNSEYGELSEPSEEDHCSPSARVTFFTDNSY
# HIPK2 (human) = HIPK2 (human) (UniProt Q9H2X6)
# INSR (human) = INSR (human) (UniProt P06213)
# [2] = test system: KIT (human), P10721 [A829P]
# LATS1 (human) = LATS1 (human) (UniProt O95835)
# LIMK2 (human) = LIMK2 (human) (UniProt P53671)
# MAP3K7 (human) = MAP3K7 (human) (UniProt O43318)
# MAP3K9 (human) = MAP3K9 (human) (UniProt P80192)
# MAPK14 (human) = MAPK14 (human) (UniProt Q16539)
# MAPKAPK5 (human) = MAPKAPK5 (human) (UniProt Q8IW41)
# Sequence of MAPKAPK5 (human) (Q8IW41 whole entry, looked up): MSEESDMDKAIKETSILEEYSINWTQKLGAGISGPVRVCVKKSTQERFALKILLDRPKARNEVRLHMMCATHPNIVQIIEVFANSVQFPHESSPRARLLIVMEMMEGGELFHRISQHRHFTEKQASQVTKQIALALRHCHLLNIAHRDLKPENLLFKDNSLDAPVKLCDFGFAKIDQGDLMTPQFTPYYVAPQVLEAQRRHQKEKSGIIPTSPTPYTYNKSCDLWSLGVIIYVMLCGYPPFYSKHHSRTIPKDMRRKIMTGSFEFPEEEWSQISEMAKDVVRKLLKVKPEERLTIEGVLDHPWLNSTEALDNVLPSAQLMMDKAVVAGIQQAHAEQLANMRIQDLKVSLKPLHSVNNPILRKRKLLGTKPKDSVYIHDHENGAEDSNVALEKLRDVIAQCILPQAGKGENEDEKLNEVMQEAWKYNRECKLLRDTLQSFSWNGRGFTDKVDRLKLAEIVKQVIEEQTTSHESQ
# MATK (human) = MATK (human) (UniProt P42679)
# NEK11 (human) = NEK11 (human) (UniProt Q8NG66)
# NEK3 (human) = NEK3 (human) (UniProt P51956)
# NEK5 (human) = NEK5 (human) (UniProt Q6P3R8)
# PAK2 (human) = PAK2 (human) (UniProt Q13177)
# [3] = test system: PIK3CA (human), P42336 [M1043I]
# PIP5K1A (human) = PIP5K1A (human) (UniProt Q99755)
# PRKCE (human) = PRKCE (human) (UniProt Q02156)
# PRKD3 (human) = PRKD3 (human) (UniProt O94806)
# RET (human) = RET (human) (UniProt P07949)
# ROCK1 (human) = ROCK1 (human) (UniProt Q13464)
# RPS6KA3 KD1 (human) = RPS6KA3 KD1 (human) (UniProt P51812)
# SGK3 (human) = SGK3 (human) (UniProt Q96BR1)
# SIK2 (human) = SIK2 (human) (UniProt Q9H0K1)
# SIK3 (human) = SIK3 (human) (UniProt Q9Y2K2)
# STK39 (human) = STK39 (human) (UniProt Q9UEW8)
# TEC (human) = TEC (human) (UniProt P42680)
# Sequence of CDK11B (human) (P21127 whole entry, looked up): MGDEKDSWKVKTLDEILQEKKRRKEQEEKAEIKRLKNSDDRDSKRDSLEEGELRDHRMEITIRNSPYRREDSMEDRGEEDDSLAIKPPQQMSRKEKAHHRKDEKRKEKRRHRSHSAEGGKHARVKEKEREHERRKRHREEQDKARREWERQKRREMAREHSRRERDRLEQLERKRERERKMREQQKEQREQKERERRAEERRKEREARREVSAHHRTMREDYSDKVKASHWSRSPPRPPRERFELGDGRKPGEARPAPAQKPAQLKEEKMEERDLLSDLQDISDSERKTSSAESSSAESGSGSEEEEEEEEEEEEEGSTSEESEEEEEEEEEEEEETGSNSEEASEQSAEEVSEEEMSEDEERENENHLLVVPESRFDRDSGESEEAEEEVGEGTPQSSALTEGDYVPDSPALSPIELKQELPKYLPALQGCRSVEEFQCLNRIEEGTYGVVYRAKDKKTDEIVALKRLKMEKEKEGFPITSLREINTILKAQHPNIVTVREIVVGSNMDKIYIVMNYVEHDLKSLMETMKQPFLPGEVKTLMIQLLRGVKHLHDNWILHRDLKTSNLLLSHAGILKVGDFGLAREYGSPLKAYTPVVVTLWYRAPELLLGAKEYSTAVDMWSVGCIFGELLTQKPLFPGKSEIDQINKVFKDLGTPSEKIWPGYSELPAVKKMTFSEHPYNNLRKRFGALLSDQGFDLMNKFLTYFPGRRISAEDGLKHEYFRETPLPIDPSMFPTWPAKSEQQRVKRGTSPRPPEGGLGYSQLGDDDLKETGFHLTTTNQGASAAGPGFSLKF
# Sequence of AKT2 (human) (P31751 whole entry, looked up): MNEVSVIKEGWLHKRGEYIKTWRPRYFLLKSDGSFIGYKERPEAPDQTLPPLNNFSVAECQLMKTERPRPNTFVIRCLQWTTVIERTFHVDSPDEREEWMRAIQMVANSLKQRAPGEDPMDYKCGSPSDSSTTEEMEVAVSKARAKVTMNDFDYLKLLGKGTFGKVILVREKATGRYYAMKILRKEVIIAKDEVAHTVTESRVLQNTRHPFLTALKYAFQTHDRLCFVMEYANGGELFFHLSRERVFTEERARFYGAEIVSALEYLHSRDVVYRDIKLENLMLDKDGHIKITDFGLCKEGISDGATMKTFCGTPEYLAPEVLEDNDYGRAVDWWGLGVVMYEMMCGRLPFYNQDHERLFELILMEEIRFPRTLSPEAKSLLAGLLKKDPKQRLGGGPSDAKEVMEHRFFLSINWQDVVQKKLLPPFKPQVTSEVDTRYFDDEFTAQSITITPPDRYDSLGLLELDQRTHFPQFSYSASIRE
# Sequence of CAMK1G (human) (Q96NX5 whole entry, looked up): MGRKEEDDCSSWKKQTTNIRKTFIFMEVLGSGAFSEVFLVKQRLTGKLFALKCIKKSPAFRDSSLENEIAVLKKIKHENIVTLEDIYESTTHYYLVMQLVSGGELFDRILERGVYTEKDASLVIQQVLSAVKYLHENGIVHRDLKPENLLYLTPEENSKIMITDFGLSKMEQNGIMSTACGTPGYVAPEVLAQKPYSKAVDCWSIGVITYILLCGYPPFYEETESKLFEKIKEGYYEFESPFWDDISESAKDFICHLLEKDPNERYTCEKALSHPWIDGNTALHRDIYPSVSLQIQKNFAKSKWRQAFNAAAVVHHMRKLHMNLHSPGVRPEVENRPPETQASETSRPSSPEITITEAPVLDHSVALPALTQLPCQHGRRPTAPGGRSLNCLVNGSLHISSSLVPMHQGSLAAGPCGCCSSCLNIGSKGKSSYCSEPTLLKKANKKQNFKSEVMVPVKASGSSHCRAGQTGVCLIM
SMILES,"kinase still bound, per cent of control (ACVR1 (human)) [%]","kinase still bound, per cent of control (ADCK3 (human)) [%]","kinase still bound, per cent of control (AKT2 (human)) [%]","kinase still bound, per cent of control (CAMK1G (human)) [%]","kinase still bound, per cent of control (CAMK2B (human)) [%]","kinase still bound, per cent of control (CDK11B (human)) [%]","kinase still bound, per cent of control (CDK17 (human)) [%]","kinase still bound, per cent of control (CDK4 CCND3 (human)) [%]","kinase still bound, per cent of control (CDK5 (human)) [%]","kinase still bound, per cent of control (CHEK1 (human)) [%]","kinase still bound, per cent of control [1] [%]","kinase still bound, per cent of control (EIF2AK1 (human)) [%]","kinase still bound, per cent of control (EPHB2 (human)) [%]","kinase still bound, per cent of control (FLT4 (human)) [%]","kinase still bound, per cent of control (HIPK2 (human)) [%]","kinase still bound, per cent of control (INSR (human)) [%]","kinase still bound, per cent of control [2] [%]","kinase still bound, per cent of control (LATS1 (human)) [%]","kinase still bound, per cent of control (LIMK2 (human)) [%]","kinase still bound, per cent of control (MAP3K7 (human)) [%]",also measured
C=CC(=O)Nc1ccc(C(=O)c2sc(Nc3ccc(N4CCN(C)CC4)cc3OC)nc2N)cc1,100,42,100,8.2,0,89,78,0.55,86,73,61,100,100,100,40,98,63,82,100,73,"kinase still bound, per cent of control (MAP3K9 (human)): 93%; kinase still bound, per cent of control (MAPK14 (human)): 2.7%; kinase still bound, per cent of control (MAPKAPK5 (human)): 14%; kinase still bound, per cent of control (MATK (human)): 25%; kinase still bound, per cent of control (NEK11 (human)): 68%; kinase still bound, per cent of control (NEK3 (human)): 70%; kinase still bound, per cent of control (NEK5 (human)): 100%; kinase still bound, per cent of control (PAK2 (human)): 68%; kinase still bound, per cent of control [3]: 100%; kinase still bound, per cent of control (PIP5K1A (human)): 34%; kinase still bound, per cent of control (PRKCE (human)): 81%; kinase still bound, per cent of control (PRKD3 (human)): 54%; kinase still bound, per cent of control (RET (human)): 100%; kinase still bound, per cent of control (ROCK1 (human)): 42%; kinase still bound, per cent of control (RPS6KA3 KD1 (human)): 9.6%; kinase still bound, per cent of control (SGK3 (human)): 83%; kinase still bound, per cent of control (SIK2 (human)): 72%; kinase still bound, per cent of control (SIK3 (human)): 95%; kinase still bound, per cent of control (STK39 (human)): 0%; kinase still bound, per cent of control (TEC (human)): 98%"
CNC(=O)Nc1ccc(-c2nc(N3CC4CCC(C3)O4)c3cnn(C4CCC5(CC4)OCCO5)c3n2)cc1,90,86,100,100,100,100,100,92,88,100,52,100,78,88,100,84,89,95,88,98,"kinase still bound, per cent of control (MAP3K9 (human)): 97%; kinase still bound, per cent of control (MAPK14 (human)): 100%; kinase still bound, per cent of control (MAPKAPK5 (human)): 100%; kinase still bound, per cent of control (MATK (human)): 100%; kinase still bound, per cent of control (NEK11 (human)): 99%; kinase still bound, per cent of control (NEK3 (human)): 100%; kinase still bound, per cent of control (NEK5 (human)): 81%; kinase still bound, per cent of control (PAK2 (human)): 99%; kinase still bound, per cent of control [3]: 4.4%; kinase still bound, per cent of control (PIP5K1A (human)): 84%; kinase still bound, per cent of control (PRKCE (human)): 100%; kinase still bound, per cent of control (PRKD3 (human)): 100%; kinase still bound, per cent of control (RET (human)): 91%; kinase still bound, per cent of control (ROCK1 (human)): 100%; kinase still bound, per cent of control (RPS6KA3 KD1 (human)): 100%; kinase still bound, per cent of control (SGK3 (human)): 100%; kinase still bound, per cent of control (SIK2 (human)): 97%; kinase still bound, per cent of control (SIK3 (human)): 35%; kinase still bound, per cent of control (STK39 (human)): 100%; kinase still bound, per cent of control (TEC (human)): 84%"
